ChEMBL document CHEMBL5726506, “Heterocyclic kinase inhibitors” (2017)
pIC50: −log10 of the molar value.

Experiment: Inhibition Assay: Class I PI3-Ks can be either purchased (p110α/p85α, p110β/p85α, p110δ/p85α from Upstate, and p110γ from Sigma) or expressed as previously described (Knight et al., 2004). IC50 values are measured using either a standard TLC assay for lipid kinase activity (described below) or a high-throughput membrane capture assay. Kinase reactions are performed by preparing a reaction mixture containing kinase, inhibitor (2% DMSO final concentration), buffer (25 mM HEPES, pH 7.4, 10 mM MgCl2), and freshly sonicated phosphatidylinositol (100 μg/ml). Reactions are initiated by the addition of ATP containing 10 μCi of γ-32P-ATP to a final concentration 10 or 100 μM and allowed to proceed for 5 minutes at room temperature. For TLC analysis, reactions are then terminated by the addition of 105 l 1N HCl followed by 160 μl CHCl3:MeOH (1:1). The biphasic mixture is vortexed, briefly centrifuged, and the organic phase is transferred to a new tube using a gel loading pipette tip precoated with CHCl3. This extract is spotted on TLC plates and developed for 3-4 hours in a 65:35 solution of n-propanol:1M acetic acid. The TLC plates are then dried, exposed to a phosphorimager screen (Storm, Amersham), and quantitated. For each compound, kinase activity is measured at 10-12 inhibitor concentrations representing two-fold dilutions from the highest concentration tested (typically, 200 μM).

| Structure (SMILES) | pIC50 |
| --- | --- |
| Nc1nc2ccc(-c3nn(Cc4cc5ccccc5nc4-c4ccccc4C(F)(F)F)c4ncnc(N)c34)cc2[nH]1 | < 6.00 |
| CN1CCN(c2nc3ccccc3cc2Cn2nc(-c3cc(O)cc(F)c3)c3c(N)ncnc32)CC1 | < 6.00 |
